Assay results published in patent US8288315B2, “Fungicide mixtures” (BASF SE, priority 2007, dated 2012).

Legend:
[1] = system: Botrytis cinerea; assay: Activity against gray mold on bell pepper leaves caused by Botrytis cinerea, 1 day protective application; type: in vivo; details: bell pepper seedlings, sprayed 1 day before inoculation, rated after 5 days, efficacy as % of untreated control
Procedure: (§1) The mixture was then made up with water to 100 ml.
The next day, the treated plants were inoculated with a spore suspension of Botrytis cinerea in a 2% strength biomalt solution. The test plants were then placed in a dark climatized chamber at 22 to 24° C. and high atmospheric humidity. After 5 days, the extent of the fungal infection on the leaves could be determined visually in %.
(§2) The visually determined percentages of infected leaf areas were converted into efficacies as % of the untreated control:
(§3) The efficacy (E) is calculated as follows using Abbot's formula: E=(1−α/β)·100 • α corresponds to the fungicidal infection of the treated plants in % and • β corresponds to the fungicidal infection of the untreated (control) plants in %
(§4) An efficacy of 0 means that the infection level of the treated plants corresponds to that of the untreated control plants; an efficacy of 100 means that the treated plants are not infected.

[2] = system: Puccinia recondita; assay: Protective activity against Puccinia recondita on wheat (brown rust of wheat); type: in vivo; details: wheat seedlings, sprayed 1 day before inoculation, rated after a further 7 days, efficacy as % of untreated control
Procedure: as §1
The next day, the treated plants were inoculated with a spore suspension of brown rust of wheat (Puccinia recondita). The plants were then placed in a chamber with high atmospheric humidity (90 to 95%) at 20 to 22° C. for 24 hours. During this time, the spores germinated and the germ tubes penetrated into the leaf tissue. The following day, the test plants were returned to the greenhouse and cultivated at temperatures between 20 and 22° C. and at 65 to 70% relative atmospheric humidity for a further 7 days. The extent of the rust fungus development on the leaves was then determined visually.
as §2, §3, §4

Row | Structure (SMILES) | Observed effect (%) ([1]; 0.016 ppm) | Observed effect (%) ([2]; 0.25 ppm) | Observed effect (%) ([1]; 0.25 ppm) | Observed effect (%) ([2]; 4 ppm)
1 | CC1(C)CCC(Cc2ccc(Cl)cc2)C1(O)Cn1cncn1 (stereo not drawn) [Metconazole, (1RS,5RS;1RS,5SR)-5-(4-chlorobenzyl)-2,2-dimethyl-1-(1H-1,2,4-triazol-1-ylmethyl)cyclopentanol] | 0% | 13% | – | –
2 | CCCN(CCOc1c(Cl)cc(Cl)cc1Cl)C(=O)n1ccnc1 [Prochloraz, N-propyl-N-[2-(2,4,6-trichlorophenoxy)ethyl]imidazole-1-carboxamide] | – | – | 0% | 0%
